The source of these data is a melting point compilation (Tetko et al.; mined from patent text by program, amines drawn as free bases though some values may be those of a salt).

Molecules are shown by their SMILES.

A word on the melting point: it is the temperature, or range, at which the solid turns liquid. As to `CC1(S(=O)(=O)c2ccccc2)CCc2nc(-c3ccccc3)[nH]c(=O)c2C1` (centres undefined), the melting point was > 250 °C.
Compound `C#CCn1cc(CO)c([N+](=O)[O-])c1` returned a melting point of 60 °C.
The same measure for `COc1nc(OC)nc(-n2c(C(F)(F)F)nc3cc(C)ccc32)n1`: 137 to 140 °C; for `Cc1ccccc1-c1ccc(C(=O)N2Cc3ccc(C(=O)NC(C)c4ccccc4)n3Cc3ccccc32)cc1C` (centres undefined): 118 to 124 °C.
With `NC(=O)CNC(=O)c1cccc(-c2cccc3oc(Cc4ccc(F)c(Cl)c4)cc23)c1` the figure was 155 to 156 °C; with `Oc1ccc2c(-c3ccc4c(O)cccc4c3)noc2c1`, 275 to 277 °C; with `COc1ccc2c(c1)c(Cc1nc(-c3cccc(Br)c3)cs1)c(C)n2C(=O)c1ccc(Cl)cc1`, 208 to 212 °C.
With `CN1Cc2cncn2C(c2ccc(Br)cc2)C1=O` (centres undefined) the figure was 143 to 144 °C.
The compound `COc1cccc2c1CCC(C=O)C2=O` (centres undefined) came in with a melting point of 68 to 70 °C.
With `COC(=O)c1c2n(c(C)cc1=O)CCCC2`, the melting point was in the range of 169 to 172 °C.
With `COC(C)c1c(C(C)C)nc(C(C)C)c(CO)c1-c1ccc(F)cc1` (centres undefined) the figure was 151 to 153 °C; with `CC(C)(O)c1ccc(S(N)(=O)=O)o1`, 116 to 118 °C; with `COC[C@]12CCC(=O)C=C1CC[C@@H]1[C@@H]2CC[C@]2(C)[C@@H](C(=O)CO)CC[C@@H]12`, 148 to 149 °C.
The same measure for `CCCCCCCCCCOc1ccc(-c2nc3ccc(C(=O)O)cc3o2)cc1C12CC3CC(CC(C3)C1)C2`: 200 to 201 °C; for `O=C(OCC1CCCN1)N1CCN(c2cc(N3CCCC3)nc(N3CCCC3)n2)CC1` (single isomer, unassigned; (+)): 137 to 138 °C.
The same measure for `O=C(O)c1c2c(nc3ccc(F)cc13)-c1ccc(-c3ccccc3C(F)(F)F)cc1CCC2`: > 300 °C.
On to `CC(C)C(C#N)c1ccc([N+](=O)[O-])cc1` (centres undefined), for which the melting point was in the range of 71 to 72 °C.
`CCNC(=O)N1C(=O)C2(CCCCC2)NC12CCCCC2` returned a melting point of 185 to 188 °C.
The same measure for `Cc1cc(N)c(OCc2ccccc2)c(Cl)c1C`: 57 to 58 °C; for `CCOC(=O)c1cnn(C)c1C(=O)Nc1ccn2nc(-c3cccc(F)n3)nc2c1`: 290 °C.
The compound `CS(=O)c1nc(-c2cc(C(C)(C)C)c(O)c(C(C)(C)C)c2)c[nH]1` (centres undefined) registered a melting point of 106 to 108 °C.
With `Cc1cc2c(C)cc(=O)oc2cc1O` the figure was 273 °C; with `O=C(c1ccc(-c2ccccn2)s1)N1CCCCc2sccc21`, 150 to 154 °C; with `O=C(O)Cc1c(C(=O)c2ccc(F)cc2)[nH]c2cc(Cl)ccc12`, 181 to 183 °C.
With `O=[N+]([O-])c1cccnc1NCc1ccc(F)cc1` the figure was 76 °C; with `CC(=O)OCC1OC(n2cc(C3=C(c4c[nH]c5ncccc45)C(=O)N(COCc4ccccc4)C3=O)c3ccccc32)C(OC(C)=O)C(OC(C)=O)C1OC(C)=O` (centres undefined), 115 to 117 °C.
The same measure for `COC(=O)C(=C(C)NCC(O)CO)c1nc(NC(C)=O)c([N+](=O)[O-])nc1Cl` (centres undefined): 70 to 73 °C; for `Nc1ncc(-c2ccc(=O)[nH]n2)c(-c2ccc(Cl)c(Cl)c2)n1`: 300 °C.
For the compound `O=C(NC1CN2CCC1CC2)c1cccc2oc(-c3ccccc3)nc12` (centres undefined), the melting point is 77 to 80 °C.
Compound `Cc1oc(-c2ccc(F)cc2)nc1CO` displayed a melting point of 153 to 155 °C.
With `O=C(Nc1ccccc1C(=NC1CCN(Cc2ccccc2)CC1)c1ccccc1)C(Cl)(Cl)Cl` the figure was 151 to 152 °C; with `CCOC(=O)c1cnc2c(cnn2Cc2ccco2)c1OCC`, 93 to 96 °C.
With `CCOC(=O)c1scnc1Cl` the figure was 43 to 45 °C.
`O=C(CCC1CCCCC1)NC1N=C(C2CCCCC2)c2ccccc2NC1=O` (centres undefined) gave a melting point of 133 to 138 °C.
For the compound `COC(=O)c1csc(-c2ccc(C#N)cc2)n1`, the melting point was in the range of 107 to 108 °C.
The same measure for `NC(=O)N1CCNC1=O`: 200 °C; for `CCc1c(N2CCC(C(N)c3ccccn3)C2)c(F)c(N)c2c(=O)c(C(=O)O)cn(C3CC3F)c12` (centres undefined): 127 to 129 °C.
With `Nc1c(F)cc(Cl)c2nc(Cl)sc12` the figure was 173 °C; with `COC(=O)c1ccc(OCC(N)=O)c(N)c1`, 181 to 182 °C.
With `Cc1n[nH]c2cc(-c3nn(C(C)c4oc5ccc(F)cc5c(=O)c4-c4ccccc4)c4ncnc(N)c34)ccc12` (centres undefined) the figure was 253 to 255 °C; with `Cc1ccccc1-c1nc(-c2cccc(Cl)c2)n[nH]1`, 147 to 148 °C; with `CC(=C1SCCCS1)c1cccc(N)c1`, 99 to 100 °C.
In the case of `COc1cc(C(=O)c2nc(NC(=O)C(F)(F)F)c3ccccn23)ccc1[N+](=O)[O-]`, the melting point is 228 °C.
`Nc1c(F)cc(Cl)cc1C(O)(C#CC1CC1)C(F)(F)F` (centres undefined) came in with a melting point of 131 to 135 °C.
`Cc1ccn(-c2ccc(Cl)c(Cl)c2)n1` gave a melting point of 46 to 47 °C.
The same measure for `COC1=C(OC)C(=O)C(CCCCCCCCCCCCC(=O)O)=C(C)C1=O`: 62 °C; for `CCOC(=O)c1[nH]c(CC)nc1C(C)C`: 177 to 178 °C.
The same measure for `CC1(C(O)(COc2ccc(Cl)cc2)Cn2cncn2)CC1(F)F` (centres undefined): 110 °C; for `Cc1cc2c(cc1Cl)N(C(=O)CN1CCN(c3ccccc3)CC1)c1ccccc1N(C)S2(=O)=O`: 194 to 196 °C.
With `CCC1(C)CC(O)CC(C)(C)N1OC(C)(C)C#N` (centres undefined) the figure was 48 to 60 °C; with `COc1nc(Br)cnc1NS(=O)(=O)c1ccccc1-c1ccc(CC(C)C)cc1`, 154 to 156 °C; with `N#Cc1cccc(CN2CCN(c3ccc(NC(=O)c4ccccc4OCc4ccc(C(F)(F)F)cc4)cc3)CC2)c1`, 190 to 191 °C.
For the compound `Oc1cc2c(cc1O)OCC(c1ccc(F)cc1)C2` (centres undefined), the melting point lay within 135 to 137 °C.
With `O=[N+]([O-])c1cccc2c1COC2` the figure was 104 to 108 °C.
The same measure for `CCC(=O)N1CCC(NC(=O)NC2CCCCCC2)CC1`: 164 to 172 °C; for `COc1c(Cl)ccc(-c2cc(N)c(Cl)c(C(=O)N(C)O)n2)c1F`: 211 to 214 °C.
The same measure for `COc1ccc(CNC(=O)N2CCN(c3ncnc4cc(OC)c(OC)cc34)CC2)cc1`: 147 to 148 °C; for `Cc1nc(N2CCN(Cc3ccc(OC(F)(F)F)cc3)C2=O)sc1C(=O)NCCc1ccccc1`: 184 to 185 °C; for `COc1cc(C=C(C#N)C(N)=O)cc(OC)c1OC`: 128 to 130 °C.
`CN1CCN=C1C(Br)(Br)[N+](=O)[O-]` returned a melting point of 88 to 90 °C.
`OCc1sc(Cl)nc1-c1ccc(Cl)cc1` came in with a melting point of 113 to 114 °C.
The same measure for `CCCc1c(O)cc2oc3cccn3c(=O)c2c1O`: 170 to 171 °C.
On to `COC(=O)Nc1ccc(CN2CCC(C(O)(c3ccc(OC(F)(F)F)cc3)c3ccc(OC(F)(F)F)cc3)CC2)cc1`, for which the melting point is 178 to 182 °C.
The same measure for `CC(=C\c1ccccc1)/C=C(\C)C(=O)NCCCCCC(=O)NO`: 120 to 122 °C; for `COC[C@H]1CN(c2ccc(OCCC3(C(F)(F)F)OCCO3)cc2)C(=O)O1`: 112 °C.
With `Cn1c(C(=O)OC(C)(C)C)c(O)c2cc(OCc3ccccc3)ccc21` the figure was 101 to 103 °C; with `CN(C)Cc1cc(C(=O)c2ccc(Cl)s2)cc(C(C)(C)C)c1O`, 137 to 138 °C.
With `COc1cc(N(C(=O)C[C@H](N)C(=O)O)S(=O)(=O)c2ccc3c(ccn3C)c2)cc(OC)c1OC` the figure was 156 to 159 °C; with `O=C(O)CCC(=O)c1ccc(-c2ccc(F)cc2)cc1`, 174 to 176 °C.
In turn, `C=CC(CCc1ccccc1)NC(=O)c1ccccc1` (centres undefined) returned a melting point of 131 °C.
With `OCCCCOc1ccc2cc(Nc3ccc(O)cc3)ccc2c1` the figure was 132 to 135 °C; with `CN(C)CCc1c[nH]c2cc(N(S(=O)(=O)c3cc(Cl)cc(Cl)c3)S(=O)(=O)c3cc(Cl)cc(Cl)c3)ccc12`, 103 to 107 °C; with `CN(C)c1cccc(-c2nc3c(N[C@H]4[C@@H](C(N)=O)[C@@H]5C=C[C@H]4C5)ccnc3[nH]2)c1`, 200 to 204 °C.
The same measure for `Clc1cc2nc(-c3csc(Cc4c(Cl)cccc4Cl)n3)[nH]c2cc1Cl`: 245 to 247 °C; for `CN(C)c1ccc(C=NCCc2cccs2)cc1`: 76.8 to 77 °C; for `Clc1nc(-c2cccnc2)sc1-c1cccnc1`: 145 to 147 °C.
The same measure for `CCOc1ncnc2c1sc1nc(N(C)C)c3c(c12)CC(C)(C)CC3`: 220 to 221 °C; for `CC(C)(C)n1nnc(Cc2ccc(CBr)cc2)n1`: 73 to 74 °C.
In turn, `O=S(=O)(c1cc(-c2ccc(F)cc2)c(-c2ccc(F)cc2)s1)C(F)(F)F` registered a melting point of 104 to 106 °C.
With `Cc1ccccc1-c1c(CS)n(C)c(=O)c2ccccc12` the figure was 184 to 186 °C; with `COc1ccc(-c2[nH]nc3c2C(=O)c2c(NC(=O)CCl)cccc2-3)cc1`, 274 °C.
The same measure for `COc1ccc(Cl)cc1N1CCN(CCCNC(=O)c2cccc3c(=O)c(C)c(C(N)=O)oc23)CC1`: 184 to 192 °C.
The same measure for `COc1ccc(Cn2c(C(=O)O)c(-c3ccc4c(c3)OCO4)c3cc(OCc4ccccc4)ccc32)c(OCC(=O)O)c1`: 147 to 148 °C.
Consider `COc1ccc(C(=O)Nc2ccc(F)cc2)cc1Nc1ccccc1`, for which the melting point was 151 to 152 °C.
With `CN1CCN(C2=Nc3cc(Br)ccc3N3CCc4cccc2c43)CC1` the figure was 153 to 155 °C; with `CC(C)n1c(=O)[nH]c2ncc(-c3ccc(O)cc3)nc21`, 323 to 324 °C; with `COc1ccc(Cc2nc3cccc([N+](=O)[O-])c3o2)cc1OC1CCCC1`, 95 to 98.5 °C.
As to `CC(=O)N1CCC(C(=O)c2ccc(Cl)c(Cl)c2)CC1`, the melting point lay in the range of 134 to 136 °C.
The same measure for `Cc1ccc(F)c(C2CC(=O)c3c(C)ccnc3C2)c1` (centres undefined): 92 to 94 °C.
